Measurements from EPA's ToxRefDB 2.

What was measured:
rat [1] = details: Subchronic oral toxicity in rodents, fischer, Water, dose end: 13 week
rat [2] = details: Developmental neurotoxicity study, sprague dawley, Oral, Feed, dose end: 63 PND, group: cannot be grouped
guinea-pig = details: Subchronic dermal toxicity, hartley, Topical, dose end: 13 week, group: systemic, systemic / clinical chemistry / creatine phosphokinase / creatine phosphokinase + systemic / clinical chemistry / lactic acid dehydrogenase…
mouse = details: Subchronic oral toxicity in rodents, b6c3f1, Water, dose end: 13 week
rat [3] = details: Prenatal developmental toxicity study, sprague dawley, Inhalation, Whole-Body, dose end: 15 GD
rat [4] = details: Subchronic oral toxicity in rodents, other, Feed, dose end: 17 week, group: systemic
rat [5] = details: Multigenerational reproductive toxicity study, sprague dawley, Oral, Feed, dose end: 2 generation
rat [6] = details: Multigenerational reproductive toxicity study, sprague dawley, Oral, Feed, dose end: 3 generation
rat [7] = details: Multigenerational reproductive toxicity study, sprague dawley, Oral, Feed, dose end: 3 generation; remark: listed apart in the source
rat [8] = details: Sub-acute repeat dose toxicity, Sprague Dawley, Oral, Gavage/Intubation, dose end: 28 day
dog [9] = details: Subchronic oral toxicity in nonrodent, beagle, Capsule, dose end: 90 day, group: systemic
rat [10] = details: Subchronic oral toxicity in rodents, sprague dawley, Gavage/Intubation, dose end: 90 day, group: systemic, systemic / organ weight / liver / absolute + systemic / organ weight / liver / relative to body weight + systemic / pathology microscopic / …
dog [11] = details: Subchronic oral toxicity in nonrodent, beagle, Capsule, dose end: 90 day, group: systemic, systemic / pathology microscopic / liver / [other] + systemic / pathology microscopic / liver / hypertrophy + systemic / pathology …
rabbit = details: Prenatal developmental toxicity study, new zealand white, Oral, Gavage/Intubation, dose end: 18 GD
rat [12] = details: Prenatal developmental toxicity study, sprague dawley, Oral, Gavage/Intubation, dose end: 15 GD
[13] = group: maternal, reproductive / reproductive performance / estrous cycle / abnormal
[14] = group: systemic, systemic / organ weight / thymus / absolute + systemic / organ weight / thymus / relative to body weight
[15] = reproductive / reproductive performance / resorptions / resorptions + systemic / in life observation / body weight / body weight gain + …
[16] = systemic / in life observation / body weight / fetal weight
[17] = group: systemic, systemic / organ weight / testes / absolute + systemic / organ weight / testes / relative to body weight + systemic / pathology gross / …
[18] = group: systemic, systemic / pathology gross / sperm measure / sperm count + systemic / pathology gross / sperm measure / sperm motility
[19] = group: developmental, developmental / developmental malformation / bone / short + developmental / developmental malformation / bone / wavy + developmental / …
[20] = group: developmental, developmental / developmental malformation / bone / wavy + developmental / developmental malformation / brain / dilated cerebral ventricle…
[21] = group: maternal, reproductive / reproductive performance / resorptions / resorptions
[22] = systemic / in life observation / body weight / body weight gain + systemic / in life observation / food consumption / food consumption + …
[23] = group: offspring, systemic / hematology / leukocyte (wbc) count differential / leukocyte (wbc) + systemic / hematology / monocytes / monocytes
[24] = group: offspring, systemic / hematology / leukocyte (wbc) count differential / leukocyte (wbc) + systemic / in life observation / body weight / offspring (pup…
[25] = group: parental, systemic / hematology / leukocyte (wbc) count differential / leukocyte (wbc) + systemic / in life observation / body weight / body weight
[26] = group: offspring, developmental / developmental landmark / vaginal opening / vaginal opening + systemic / in life observation / body weight / offspring (pup) …
[27] = group: parental, systemic / in life observation / body weight / body weight + systemic / organ weight / kidney / relative to body weight + systemic / organ …
[28] = group: parental, systemic / pathology microscopic / kidney / mineralization + systemic / pathology microscopic / kidney / cyst + systemic / pathology …
[29] = group: reproductive, reproductive / offspring survival early / litter size / litter size + reproductive / reproductive performance / estrous cycle / length + …
[30] = group: reproductive, reproductive / reproductive performance / gestational length / gestational length
[31] = group: offspring, developmental / developmental landmark / preputial separation / preputial separation + systemic / in life observation / body weight / …
[32] = group: offspring, systemic / in life observation / food consumption / food consumption + systemic / pathology microscopic / kidney / degeneration
[33] = group: parental, systemic / in life observation / food consumption / food consumption + systemic / organ weight / kidney / relative to body weight
[34] = group: parental, systemic / pathology gross / sperm measure / sperm morphology
[35] = group: reproductive, reproductive / offspring survival early / live fetuses / live fetuses
[36] = group: systemic, systemic / clinical chemistry / glucose / glucose + systemic / clinical chemistry / luteinizing hormone (lh) / luteinizing hormone (lh) + …
[37] = systemic / pathology microscopic / liver / cytoplasmic alteration + systemic / pathology microscopic / liver / vacuolization
[38] = systemic / pathology microscopic / liver / cytoplasmic alteration + systemic / pathology microscopic / liver / vacuolization + systemic / …
[39] = group: developmental, developmental / developmental malformation / bone / misshapen
[40] = group: maternal, reproductive / reproductive performance / postimplantation loss / postimplantation loss + systemic / in life observation / body weight / …
[41] = group: developmental, systemic / in life observation / body weight / fetal weight
[42] = group: maternal, systemic / in life observation / clinical signs / respiration (rales) + systemic / in life observation / clinical signs / salivation + …

COCCO [2-Methoxyethanol]
LEL (rat [1]; [13]): 135 mg/kg/day
LOAEL (rat [1]; [13]): > 785 mg/kg/day
NEL (rat [1]; [13]): 70 mg/kg/day
NOAEL (rat [1]; [13]): ≥ 785 mg/kg/day
LOAEL (rat [1]; group: systemic, systemic / in life observation / body weight / body weight + systemic / pathology microscopic / spleen / fibrosis): 135 mg/kg/day
NOAEL (rat [1]; group: systemic, systemic / in life observation / body weight / body weight + systemic / pathology microscopic / spleen / fibrosis + systemic / clinical …): 70 mg/kg/day
LEL (rat [1]; [14]): 70 mg/kg/day
NEL (rat [1]; [14]): < 70 mg/kg/day
LOAEL (rat [2]; [15]): > 620 mg/kg/day
NOAEL (rat [2]; [15]): ≥ 620 mg/kg/day
LEL (rat [2]; [16]): 16 mg/kg/day
NEL (rat [2]; [16]): < 16 mg/kg/day
LEL (guinea-pig): 1000 mg/kg/day
LOAEL (guinea-pig): > 1000 mg/kg/day
NEL (guinea-pig): < 1000 mg/kg/day
NOAEL (guinea-pig): ≥ 1000 mg/kg/day
LEL (mouse; [13]): 492 mg/kg/day
LOAEL (mouse; [13]): > 1840 mg/kg/day
NEL (mouse; [13]): < 492 mg/kg/day
NOAEL (mouse; [13]): ≥ 1840 mg/kg/day
LOAEL (mouse; [17]): 529 mg/kg/day
NOAEL (mouse; [17]): 295 mg/kg/day
LEL (mouse; [18]): 295 mg/kg/day
NEL (mouse; [18]): < 295 mg/kg/day
LOAEL (rat [3]; [19]): > 200 ppm
NOAEL (rat [3]; [19]): ≥ 200 ppm
LEL (rat [3]; [20]): 50 ppm
NEL (rat [3]; [20]): < 50 ppm
LEL (rat [3]; [21]): 50 ppm
LOAEL (rat [3]; [21]): > 200 ppm
NEL (rat [3]; [21]): < 50 ppm
NOAEL (rat [3]; [21]): ≥ 200 ppm

CC(C)CCCCCCc1ccc(O)cc1 [4-Nonylphenol, branched]
LEL (rat [4]; systemic / in life observation / body weight / body weight): 50 mg/kg/day
NEL (rat [4]; systemic / in life observation / body weight / body weight + systemic / in life observation / body weight / body weight gain + systemic / …): 15 mg/kg/day
LOAEL (rat [4]; [22]): > 150 mg/kg/day
NOAEL (rat [4]; [22]): ≥ 150 mg/kg/day
LEL (rat [5]; [23]): 1.25 mg/kg/day
NEL (rat [5]; [23]): < 1.25 mg/kg/day
LOAEL (rat [5]; [24]): > 100 mg/kg/day
NOAEL (rat [5]; [24]): ≥ 100 mg/kg/day
LEL (rat [5]; [25]): 100 mg/kg/day
LOAEL (rat [5]; [25]): > 100 mg/kg/day
NEL (rat [5]; [25]): 25 mg/kg/day
NOAEL (rat [5]; [25]): ≥ 100 mg/kg/day
NEL (rat [6]; group: offspring, developmental / developmental landmark / vaginal opening / vaginal opening): 10 mg/kg/day
LEL (rat [6]; [26]): 32.5 mg/kg/day
LOAEL (rat [6]; [26]): > 100 mg/kg/day
NOAEL (rat [6]; [26]): ≥ 100 mg/kg/day
LOAEL (rat [6]; [27]): > 100 mg/kg/day
NOAEL (rat [6]; [27]): ≥ 100 mg/kg/day
LEL (rat [6]; [28]): 10 mg/kg/day
NEL (rat [6]; [28]): < 10 mg/kg/day
LOAEL (rat [6]; [29]): > 100 mg/kg/day
NOAEL (rat [6]; [29]): ≥ 100 mg/kg/day
LEL (rat [6]; [30]): 10 mg/kg/day
NEL (rat [6]; [30]): < 10 mg/kg/day
LOAEL (rat [7]; [31]): > 171 mg/kg/day
NOAEL (rat [7]; [31]): ≥ 171 mg/kg/day
LEL (rat [7]; [32]): 18 mg/kg/day
NEL (rat [7]; [32]): < 18 mg/kg/day
LOAEL (rat [7]; [33]): > 122 mg/kg/day
NOAEL (rat [7]; [33]): ≥ 122 mg/kg/day
LEL (rat [7]; [34]): 18 mg/kg/day
NEL (rat [7]; [34]): < 18 mg/kg/day
LEL (rat [7]; [35]): 171 mg/kg/day
LOAEL (rat [7]; [35]): > 171 mg/kg/day
NEL (rat [7]; [35]): 53 mg/kg/day
NOAEL (rat [7]; [35]): ≥ 171 mg/kg/day
LEL (rat [8]; [13]): 250 mg/kg/day
LOAEL (rat [8]; [13]): > 250 mg/kg/day
NEL (rat [8]; [13]): 50 mg/kg/day
NOAEL (rat [8]; [13]): ≥ 250 mg/kg/day
LEL (rat [8]; [36]): 50 mg/kg/day
LOAEL (rat [8]; [36]): > 250 mg/kg/day
NEL (rat [8]; [36]): 10 mg/kg/day
NOAEL (rat [8]; [36]): ≥ 250 mg/kg/day

CCCCCC(C)(CC)C(=O)NC (centres undefined) [N-Methylneodecanamide]
LOAEL (dog [9]; [37]): 13.5 mg/kg/day
NOAEL (dog [9]; [37]): < 13.5 mg/kg/day
LEL (dog [9]; [38]): 13.5 mg/kg/day
NEL (dog [9]; [38]): < 13.5 mg/kg/day
LEL (rat [10]): 30 mg/kg/day
LOAEL (rat [10]): 30 mg/kg/day
NEL (rat [10]): 3 mg/kg/day
NOAEL (rat [10]): 3 mg/kg/day
LEL (dog [11]): 4.52 mg/kg/day
LOAEL (dog [11]): 4.52 mg/kg/day
NEL (dog [11]): 1.35 mg/kg/day
NOAEL (dog [11]): 1.35 mg/kg/day
LEL (rabbit; [39]): 200 mg/kg/day
LOAEL (rabbit; [39]): 200 mg/kg/day
NEL (rabbit; [39]): 100 mg/kg/day
NOAEL (rabbit; [39]): 100 mg/kg/day
LEL (rabbit; [40]): 200 mg/kg/day
LOAEL (rabbit; [40]): 200 mg/kg/day
NEL (rabbit; [40]): 100 mg/kg/day
NOAEL (rabbit; [40]): 100 mg/kg/day
LEL (rat [12]; [41]): 400 mg/kg/day
LOAEL (rat [12]; [41]): 400 mg/kg/day
NEL (rat [12]; [41]): 125 mg/kg/day
NOAEL (rat [12]; [41]): 125 mg/kg/day
LEL (rat [12]; [42]): 125 mg/kg/day
LOAEL (rat [12]; [42]): 125 mg/kg/day
NEL (rat [12]; [42]): 40 mg/kg/day
NOAEL (rat [12]; [42]): 40 mg/kg/day
